Values quoted from earlier work as cited in patent US20190365934A1, “METHODS FOR IN VIVO MONITORING OF DO[…] AND EFFICACY OF TREATMENT AGENTS THEREFOR” (LIKEMINDS, INC., priority 2017, published 2019).

Settings: background statement on FDA approved SPECT tracer

COC(=O)[C@H]1[C@@H](c2ccc([123I])cc2)C[C@@H]2CC[C@H]1N2CCCF [[^123I]-FP-CIT, [^123I]-2β-carbomethoxy-3β-(4-iodophenyl)-N-(3-fluoropropyl) nortropane]
stable post-injection: 4 h
